Experimental data published in ChEMBL document CHEMBL5696443 (Clin Cancer Res, 2016).
Calls of active or inactive are those of the source. The calls are words filed in the database; no cut-off is given here.

How the values were obtained:
[1] = molecular target: cGMP-dependent protein kinase 1 (Homo sapiens) (UniProt Q13976); experiment: Inhibition of human PKG1b at 1 uM using LRRASLG as substrate in presence of [gamma33P]-ATP by HotSpot assay relative to control
[2] = tested on: BaF3; experiment: Antitumor activity against mouse BaF3 cells expressing native EML4-ALK implanted in mouse assessed as tumor regression at 50 mg/kg, po administered once daily and measured after 8 days relative to control; assay type: functional; details: time 8 day
[3] = molecular target: Ribosomal protein S6 kinase alpha-5 (Homo sapiens) (UniProt O75582); experiment: Inhibition of human RPS6KA5 at 1 uM using GRPRTSSFAEG as substrate in presence of [gamma33P]-ATP by HotSpot assay relative to control
[4] = molecular target: TGF-beta receptor type-2 (Homo sapiens) (UniProt P37173); experiment: Inhibition of human TGFBR2 at 1 uM using MBP as substrate in presence of [gamma33P]-ATP by HotSpot assay relative to control
[5] = molecular target: Protein kinase C beta type (Homo sapiens) (UniProt P05771); experiment: Inhibition of human PKCb2 at 1 uM using ERMRPRKRQGSVRRRV as substrate in presence of [gamma33P]-ATP by HotSpot assay relative to control
Protein kinase C beta type (Homo sapiens), sequence (P05771 2-671 limits assumed): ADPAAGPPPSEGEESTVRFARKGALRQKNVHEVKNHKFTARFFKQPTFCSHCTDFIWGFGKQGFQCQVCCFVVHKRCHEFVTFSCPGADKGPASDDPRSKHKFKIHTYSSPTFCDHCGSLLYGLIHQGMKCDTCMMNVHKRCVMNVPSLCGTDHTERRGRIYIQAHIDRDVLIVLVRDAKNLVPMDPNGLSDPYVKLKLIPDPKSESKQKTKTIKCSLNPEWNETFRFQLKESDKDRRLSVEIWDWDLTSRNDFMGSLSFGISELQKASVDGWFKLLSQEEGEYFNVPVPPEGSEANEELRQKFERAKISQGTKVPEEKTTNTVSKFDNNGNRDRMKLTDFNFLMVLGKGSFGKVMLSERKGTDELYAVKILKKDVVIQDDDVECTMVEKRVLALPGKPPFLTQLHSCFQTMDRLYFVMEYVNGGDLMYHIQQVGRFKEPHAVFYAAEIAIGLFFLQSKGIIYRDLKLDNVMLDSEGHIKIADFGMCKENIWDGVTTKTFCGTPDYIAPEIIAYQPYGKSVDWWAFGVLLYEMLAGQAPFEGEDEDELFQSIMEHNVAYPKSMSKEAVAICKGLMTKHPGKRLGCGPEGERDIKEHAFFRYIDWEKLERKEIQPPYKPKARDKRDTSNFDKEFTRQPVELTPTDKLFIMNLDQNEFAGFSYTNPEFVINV

[6] = molecular target: Serine/threonine-protein kinase TBK1 (Homo sapiens) (UniProt Q9UHD2); experiment: Inhibition of human TBK1 at 1 uM using MBP as substrate in presence of [gamma33P]-ATP by HotSpot assay relative to control
Serine/threonine-protein kinase TBK1 (Homo sapiens), sequence (Q9UHD2 whole entry): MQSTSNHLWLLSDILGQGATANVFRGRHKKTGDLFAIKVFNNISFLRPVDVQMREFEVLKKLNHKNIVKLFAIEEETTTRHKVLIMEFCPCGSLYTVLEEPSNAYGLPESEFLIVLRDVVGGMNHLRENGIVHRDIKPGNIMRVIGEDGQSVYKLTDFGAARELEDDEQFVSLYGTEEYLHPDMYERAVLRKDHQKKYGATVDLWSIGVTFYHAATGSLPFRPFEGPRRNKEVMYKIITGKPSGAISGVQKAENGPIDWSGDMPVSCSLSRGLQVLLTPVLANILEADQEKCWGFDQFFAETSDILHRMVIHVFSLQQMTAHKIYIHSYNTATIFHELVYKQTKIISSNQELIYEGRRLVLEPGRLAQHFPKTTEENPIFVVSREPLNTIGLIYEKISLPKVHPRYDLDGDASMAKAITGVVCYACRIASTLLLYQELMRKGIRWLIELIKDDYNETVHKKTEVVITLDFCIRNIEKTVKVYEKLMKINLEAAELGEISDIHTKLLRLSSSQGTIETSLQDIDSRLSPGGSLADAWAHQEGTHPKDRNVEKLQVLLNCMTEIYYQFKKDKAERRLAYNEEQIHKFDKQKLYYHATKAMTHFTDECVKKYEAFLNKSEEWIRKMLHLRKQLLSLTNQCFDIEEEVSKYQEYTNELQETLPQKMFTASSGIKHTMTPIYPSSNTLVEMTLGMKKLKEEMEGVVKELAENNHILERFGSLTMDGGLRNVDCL

[7] = molecular target: Serine/threonine-protein kinase SIK2 (Homo sapiens, UniProt Q9H0K1); experiment: Inhibition of human SIK2 using AMARAASAAALARRR as substrate in presence of [gamma33P]-ATP by HotSpot assay
[8] = molecular target: Serine/threonine-protein kinase PAK 2 (Homo sapiens) (UniProt Q13177); experiment: Inhibition of human PAK2 at 1 uM using RRRLSFAEPG as substrate in presence of [gamma33P]-ATP by HotSpot assay relative to control
[9] = molecular target: RAC-beta serine/threonine-protein kinase (Homo sapiens) (UniProt P31751); experiment: Inhibition of human AKT2 at 1 uM using KGSGSGRPRTSSFAEG as substrate in presence of [gamma33P]-ATP by HotSpot assay relative to control
[10] = tested on: SU-DHL-1; details: time 72 hrs
[11] = molecular target: Discoidin domain-containing receptor 2 (Homo sapiens) (UniProt Q16832); experiment: Inhibition of human DDR2 at 1 uM using KKSRGDYMTMQIG as substrate in presence of [gamma33P]-ATP by HotSpot assay relative to control
Discoidin domain-containing receptor 2 (Homo sapiens), sequence (Q16832 whole entry, the tested form may be a part): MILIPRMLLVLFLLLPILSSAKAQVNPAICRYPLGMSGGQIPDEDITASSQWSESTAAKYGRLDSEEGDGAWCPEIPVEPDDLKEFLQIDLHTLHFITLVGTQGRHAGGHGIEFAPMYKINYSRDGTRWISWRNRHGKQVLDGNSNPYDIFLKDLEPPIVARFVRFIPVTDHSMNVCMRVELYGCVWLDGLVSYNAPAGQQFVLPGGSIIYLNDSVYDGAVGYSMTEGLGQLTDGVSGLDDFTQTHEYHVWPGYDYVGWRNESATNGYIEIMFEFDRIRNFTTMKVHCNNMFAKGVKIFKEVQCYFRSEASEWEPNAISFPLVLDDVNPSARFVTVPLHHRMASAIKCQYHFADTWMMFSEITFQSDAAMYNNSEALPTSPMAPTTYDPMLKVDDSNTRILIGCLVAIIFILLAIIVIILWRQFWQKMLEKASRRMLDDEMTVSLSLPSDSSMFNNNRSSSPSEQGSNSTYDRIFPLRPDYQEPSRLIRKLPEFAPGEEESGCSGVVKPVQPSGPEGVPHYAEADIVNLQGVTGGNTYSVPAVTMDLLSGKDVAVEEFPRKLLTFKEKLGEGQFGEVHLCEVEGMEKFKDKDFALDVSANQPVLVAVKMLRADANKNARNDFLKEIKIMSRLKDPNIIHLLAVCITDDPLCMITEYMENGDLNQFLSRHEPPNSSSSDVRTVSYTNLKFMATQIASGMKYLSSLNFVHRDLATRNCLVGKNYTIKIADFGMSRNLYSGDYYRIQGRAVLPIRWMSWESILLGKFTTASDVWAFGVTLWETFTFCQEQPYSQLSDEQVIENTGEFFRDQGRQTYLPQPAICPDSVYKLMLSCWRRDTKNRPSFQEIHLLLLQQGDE

[12] = molecular target: Tyrosine-protein kinase JAK2 (Homo sapiens, UniProt O60674); experiment: Inhibition of human JAK2 using poly (Glu, Tyr)4:1 as substrate in presence of [gamma33P]-ATP by HotSpot assay
[13] = tested on: EML4-ALK (Homo sapiens), Q9UM73+Q9HC35 [F1174C]; details: BaF3, dose 500.0 nmol/L, time 3-5 weeks
[14] = molecular target: Mitogen-activated protein kinase kinase kinase 5 (Homo sapiens) (UniProt Q99683); experiment: Inhibition of human MAP3K5 at 1 uM using MBP as substrate in presence of [gamma33P]-ATP by HotSpot assay relative to control
Mitogen-activated protein kinase kinase kinase 5 (Homo sapiens), sequence (Q99683 whole entry): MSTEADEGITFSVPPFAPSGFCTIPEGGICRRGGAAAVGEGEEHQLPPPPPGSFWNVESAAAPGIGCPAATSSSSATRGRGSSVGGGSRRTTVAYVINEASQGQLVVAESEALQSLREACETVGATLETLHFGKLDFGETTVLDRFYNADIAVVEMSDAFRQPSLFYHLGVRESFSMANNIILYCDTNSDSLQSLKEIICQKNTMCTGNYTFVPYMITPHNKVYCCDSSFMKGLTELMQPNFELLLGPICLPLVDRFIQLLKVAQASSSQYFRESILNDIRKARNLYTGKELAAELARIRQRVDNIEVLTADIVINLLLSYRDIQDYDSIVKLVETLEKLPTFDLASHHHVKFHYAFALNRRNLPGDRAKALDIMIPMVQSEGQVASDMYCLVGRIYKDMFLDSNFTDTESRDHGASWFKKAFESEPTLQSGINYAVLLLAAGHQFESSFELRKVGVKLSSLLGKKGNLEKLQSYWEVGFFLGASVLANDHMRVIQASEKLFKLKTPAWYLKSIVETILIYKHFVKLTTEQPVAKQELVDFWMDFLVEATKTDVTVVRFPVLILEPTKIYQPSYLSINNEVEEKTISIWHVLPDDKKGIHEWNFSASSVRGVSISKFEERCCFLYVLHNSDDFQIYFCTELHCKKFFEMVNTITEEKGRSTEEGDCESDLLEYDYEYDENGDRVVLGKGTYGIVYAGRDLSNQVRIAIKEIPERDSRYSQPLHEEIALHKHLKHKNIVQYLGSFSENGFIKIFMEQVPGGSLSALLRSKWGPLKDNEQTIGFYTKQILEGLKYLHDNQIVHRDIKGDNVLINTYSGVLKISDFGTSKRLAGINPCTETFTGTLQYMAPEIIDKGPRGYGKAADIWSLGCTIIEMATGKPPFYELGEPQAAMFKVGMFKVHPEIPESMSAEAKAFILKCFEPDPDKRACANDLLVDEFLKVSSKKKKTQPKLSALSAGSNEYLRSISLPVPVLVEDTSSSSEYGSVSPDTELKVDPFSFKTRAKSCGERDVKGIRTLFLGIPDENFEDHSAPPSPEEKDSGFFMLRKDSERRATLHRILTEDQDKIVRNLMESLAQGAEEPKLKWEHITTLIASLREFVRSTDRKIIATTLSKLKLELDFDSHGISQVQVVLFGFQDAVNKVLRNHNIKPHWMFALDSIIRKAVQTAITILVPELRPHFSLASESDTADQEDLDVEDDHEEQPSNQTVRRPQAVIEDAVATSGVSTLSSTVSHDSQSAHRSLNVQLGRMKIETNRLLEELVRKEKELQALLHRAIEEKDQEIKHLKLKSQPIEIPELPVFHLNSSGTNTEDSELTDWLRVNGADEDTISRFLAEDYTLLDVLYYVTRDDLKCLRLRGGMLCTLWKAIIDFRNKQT

[15] = molecular target: Tyrosine-protein kinase Tec (Homo sapiens) (UniProt P42680); experiment: Inhibition of human TEC at 1 uM using poly (Glu, Tyr)4:1 as substrate in presence of [gamma33P]-ATP by HotSpot assay relative to control
[16] = molecular target: Mitogen-activated protein kinase kinase kinase kinase 2 (Homo sapiens) (UniProt Q12851); experiment: Inhibition of human GCK at 1 uM using MBP as substrate in presence of [gamma33P]-ATP by HotSpot assay relative to control
[17] = molecular target: cAMP-dependent protein kinase catalytic subunit PRKX (Homo sapiens) (UniProt P51817); experiment: Inhibition of human PRKX at 1 uM using LRRASLG as substrate in presence of [gamma33P]-ATP by HotSpot assay relative to control
[18] = tested on: EML4-ALK (Homo sapiens), Q9UM73+Q9HC35 [D1203N]; details: BaF3, dose 500.0 nmol/L, time 3-5 weeks
[19] = molecular target: Ribosomal protein S6 kinase alpha-4 (Homo sapiens) (UniProt O75676); experiment: Inhibition of human RPS6KA4 at 1 uM using GRPRTSSFAEG as substrate in presence of [gamma33P]-ATP by HotSpot assay relative to control
Ribosomal protein S6 kinase alpha-4 (Homo sapiens), sequence (O75676 whole entry, looked up): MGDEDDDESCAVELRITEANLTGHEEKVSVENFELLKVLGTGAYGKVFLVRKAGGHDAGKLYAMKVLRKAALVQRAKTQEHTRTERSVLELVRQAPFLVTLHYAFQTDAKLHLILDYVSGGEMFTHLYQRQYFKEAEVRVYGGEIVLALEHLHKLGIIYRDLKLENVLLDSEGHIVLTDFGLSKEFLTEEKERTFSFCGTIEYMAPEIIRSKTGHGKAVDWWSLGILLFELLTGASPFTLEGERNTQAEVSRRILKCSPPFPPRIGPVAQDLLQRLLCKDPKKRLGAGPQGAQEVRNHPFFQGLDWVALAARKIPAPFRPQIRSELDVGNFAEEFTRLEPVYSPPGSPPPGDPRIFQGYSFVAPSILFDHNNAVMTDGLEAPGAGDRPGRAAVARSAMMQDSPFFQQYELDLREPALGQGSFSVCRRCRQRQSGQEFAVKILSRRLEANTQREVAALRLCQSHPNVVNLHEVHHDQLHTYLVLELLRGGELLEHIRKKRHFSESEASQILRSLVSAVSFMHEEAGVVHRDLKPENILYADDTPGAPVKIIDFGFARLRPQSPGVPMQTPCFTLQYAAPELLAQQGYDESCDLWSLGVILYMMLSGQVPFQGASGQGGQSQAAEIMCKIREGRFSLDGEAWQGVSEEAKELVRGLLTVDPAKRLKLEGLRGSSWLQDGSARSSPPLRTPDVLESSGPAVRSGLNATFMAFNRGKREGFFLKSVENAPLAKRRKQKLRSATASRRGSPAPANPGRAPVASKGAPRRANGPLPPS

[20] = molecular target: Tyrosine-protein kinase Fes/Fps (Homo sapiens, UniProt P07332); experiment: Inhibition of human FES using poly (Glu, Tyr)4:1 as substrate in presence of [gamma33P]-ATP by HotSpot assay
[21] = molecular target: Calcium/calmodulin-dependent protein kinase type II subunit gamma (Homo sapiens, UniProt Q13555); experiment: Inhibition of human CAMK2G using KKLNRTLSFAEPG as substrate in presence of [gamma33P]-ATP by HotSpot assay
[22] = molecular target: CDK6/cyclin D3 (Homo sapiens) (UniProt P30281+Q00534); experiment: Inhibition of human CDK6/CyclinD3 at 1 uM using RB protein as substrate in presence of [gamma33P]-ATP by HotSpot assay relative to control; assay type: protein-complex assay
[23] = molecular target: SRSF protein kinase 2 (Homo sapiens) (UniProt P78362); experiment: Inhibition of human SRPK2 at 1 uM using GRSRSRSRSR as substrate in presence of [gamma33P]-ATP by HotSpot assay relative to control
[24] = molecular target: Casein kinase I isoform gamma-2 (Homo sapiens) (UniProt P78368); experiment: Inhibition of human CSNK1G2 at 1 uM using KRRRAL[pS]VASLPGL as substrate in presence of [gamma33P]-ATP by HotSpot assay relative to control
[25] = molecular target: Serine/threonine-protein kinase 26 (Homo sapiens) (UniProt Q9P289); experiment: Inhibition of human STK26 at 1 uM using MBP as substrate in presence of [gamma33P]-ATP by HotSpot assay relative to control
[26] = molecular target: Protein kinase C epsilon type (Homo sapiens) (UniProt Q02156); experiment: Inhibition of human PKCepsilon at 1 uM using ERMRPRKRQGSVRRRV as substrate in presence of [gamma33P]-ATP by HotSpot assay relative to control
[27] = molecular target: Dual specificity mitogen-activated protein kinase kinase 1 (Homo sapiens) (UniProt Q02750); experiment: Inhibition of human MAP2K1 at 1 uM using ERK2 as substrate in presence of [gamma33P]-ATP by HotSpot assay relative to control
Dual specificity mitogen-activated protein kinase kinase 1 (Homo sapiens), sequence (Q02750 whole entry): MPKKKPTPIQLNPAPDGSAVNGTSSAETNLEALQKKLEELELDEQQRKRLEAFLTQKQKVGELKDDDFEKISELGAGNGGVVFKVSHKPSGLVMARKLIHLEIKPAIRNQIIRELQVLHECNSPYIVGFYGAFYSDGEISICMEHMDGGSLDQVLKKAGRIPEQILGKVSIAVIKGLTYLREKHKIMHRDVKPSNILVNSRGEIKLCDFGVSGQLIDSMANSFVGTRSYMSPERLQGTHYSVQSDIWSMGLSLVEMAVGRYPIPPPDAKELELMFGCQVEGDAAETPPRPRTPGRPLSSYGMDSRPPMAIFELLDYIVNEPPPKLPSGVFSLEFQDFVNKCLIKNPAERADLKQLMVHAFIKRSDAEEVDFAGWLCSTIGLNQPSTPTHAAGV

[28] = molecular target: Mitogen-activated protein kinase 14 (Homo sapiens) (UniProt Q16539); experiment: Inhibition of human MAPK14 at 1 uM using MBP as substrate in presence of [gamma33P]-ATP by HotSpot assay relative to control

Question: `COc1cc(N2CCC(N3CCN(C)CC3)CC2)ccc1Nc1ncc(Cl)c(Nc2ccccc2P(C)(C)=O)n1` [BRIGATINIB] was tested. Which inhibition [1] did it give?
Answer: < 90%

Question: And the Activity [2]?
Answer: 89%

Question: What about the inhibition [3] of the same molecule?
Answer: < 90%

Question: What about the inhibition [4] of the same molecule?
Answer: < 90%

Question: What about the inhibition [5] of the same molecule?
Answer: < 90%

Question: What about the inhibition [6] of the same molecule?
Answer: < 90%

Question: What about the IC50 [7] of the same molecule?
Answer: 0.466 µM

Question: And the inhibition [8]?
Answer: < 90%

Question: And the inhibition [9]?
Answer: < 90%

Question: What about the GI50 [10] of the same molecule?
Answer: 0.009 µM

Question: What about the inhibition [11] of the same molecule?
Answer: < 90%

Question: And the IC50 [12]?
Answer: 0.154 µM

Question: And the inhibition [13]?
Answer: Active

Question: And the inhibition [14]?
Answer: < 90%

Question: What about the inhibition [15] of the same molecule?
Answer: < 90%

Question: And the inhibition [16]?
Answer: < 90%

Question: And the inhibition [17]?
Answer: < 90%

Question: What about the inhibition [18] of the same molecule?
Answer: Active

Question: What about the inhibition [19] of the same molecule?
Answer: < 90%

Question: And the IC50 [20]?
Answer: 0.0035 µM

Question: What about the IC50 [21] of the same molecule?
Answer: 0.048 µM

Question: What about the inhibition [22] of the same molecule?
Answer: < 90%

Question: And the inhibition [23]?
Answer: < 90%

Question: What about the inhibition [24] of the same molecule?
Answer: < 90%

Question: What about the inhibition [25] of the same molecule?
Answer: < 90%

Question: And the inhibition [26]?
Answer: < 90%

Question: What about the inhibition [27] of the same molecule?
Answer: < 90%

Question: And the inhibition [28]?
Answer: < 90%
